One assay addresses T1, GSK-3β (Homo sapiens, UniProt P49841).
T1 construct: gene GSK3B
Put plainly: biochemical. On the set-up: Kinase-Glo luminescent ATP-consumption assay, human recombinant GSK-3beta, GSM peptide substrate, 1 uM ATP, 30 min 37 C.
Conditions: not given
The protocol: GSK-3β activity and inhibition were studied according to the luminescent method of Baki et al. using a Kinase-Glo reagent kit. The reaction was performed in 96-well white plates. Each well contained 10 µL of test compound (dissolved in DMSO) at 1 mM concentration and diluted in advance in an assay buffer (pH 7.5) containing 50 mM HEPES, 1 mM EDTA, 1 mM EGTA, and 15 mM magnesium acetate, to the desired concentration, 10 µL of ATP (1 µM final concentration), 10 µL of 100 µM GSM and 10 µL of GSK-3β (20 ng). Ten microliters of either buffer or SB-415286 solution (5 µM final concentration) was added instead of test compound solution in order to obtain the positive (maximum activity) and negative control (total inhibition), respectively. […] The mix was left to react at 37 °C for 30 min. Then the enzymatic reactions were stopped with 40 µL of Kinase-Glo reagent. Glow-type luminescence was recorded after 10 min. The activity is proportional to the difference of the total and consumed ATP. The inhibition activities were calculated on the basis of maximal activity, measured in the absence of inhibitor, and the maximal inhibition was measured in the presence of the reference compound. The IC50 values were calculated using the GraphPad Prism 4.0 program (GraphPad Software Inc., CA, USA). Kinase-Glo Kit was obtained from Promega (Promega Biotech Iberica, S.L., Madrid, Spain), and human recombinant GSK-3β and GSM substrate mimicking Glycogen Muscle Synthase from Merck Millipore (Darmstadt, Germany). Adenosine 5-triphosphate (ATP) disodium salt hydrate, ammonium acetate, ammonium hydroxide, 4-(2-hydroxyethyl)piperazine-1-ethanesulfonic acid (HEPES), ethylene glycol-bis(-aminoethylether)-N,N,N,N-tetraacetic acid tetrasodium salt (EGTA), ethylenediaminetetraacetic acid (EDTA), dimethyl sulfoxide (DMSO), magnesium acetate tetrahydrate, formic acid, and 3-[(3-chloro-4-hydroxyphenyl)amino]-4-(2-nitrophenyl)-1H-pyrrol-2,5-dione were purchased from Sigma-Aldrich (St. Louis, MO, USA). The GSK-3β selective inhibitor SB-415286 ([3-(3-chloro-4-hydroxyphenylamino)-4-(2-nitrophenyl)-1H-pyrrole-2,5-dione]) was purchased from Selleck Chemicals (Houston, TX, USA). Ultrapure water was obtained using a Purite LTD water purification system (Thame, UK). The experiments were carried out using a Victor X3 multimode plate reader (Perkin Elmer, MA, USA). The inhibitory activity of the compounds was first screened at a concentration of 50 µM (Table 1); a synthetic arylindolemaleimide derivative, SB-415286, was used as a positive standard.
T1 sequence (P49841 whole entry): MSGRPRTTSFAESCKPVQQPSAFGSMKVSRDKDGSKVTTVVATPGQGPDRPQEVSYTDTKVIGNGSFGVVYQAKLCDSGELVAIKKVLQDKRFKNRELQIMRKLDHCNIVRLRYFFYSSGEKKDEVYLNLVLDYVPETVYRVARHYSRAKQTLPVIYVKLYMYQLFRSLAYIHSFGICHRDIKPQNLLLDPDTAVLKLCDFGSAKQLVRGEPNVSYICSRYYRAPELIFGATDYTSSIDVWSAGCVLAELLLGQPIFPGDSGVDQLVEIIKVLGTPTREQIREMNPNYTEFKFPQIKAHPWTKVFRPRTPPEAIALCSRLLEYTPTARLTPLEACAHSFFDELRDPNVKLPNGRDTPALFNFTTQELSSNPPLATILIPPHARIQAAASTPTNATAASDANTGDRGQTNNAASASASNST
For orientation: inhibition means the change of the read-out against control, counted positive when it falls. With `CC(=O)O[C@H]1[C@H]2c3cc4c(cc3CN3CCC(=C[C@@H]1O)[C@H]23)OCO4` [1-O-Acetyllycorine (16)], the inhibition at 50 µM came to 49.9 ± 1.9%.
The same measure, in the same setting: with `COc1c2c(cc3c1OCO3)[C@]13C=C[C@H](OC)C[C@H]1N(C2)C[C@@H]3O` [Ambelline (7)] the figure was 38 ± 0.8%.
Still for that read-out and setting: the same measure for `COc1c2c(cc3c1OCO3)[C@@]13CCN(C2)[C@@H]1C[C@@H](O)[C@@H]1O[C@@H]13` [Crinamidine (10)]: 32.1 ± 7.9%; for `O[C@H]1C=C[C@@]23CCN(Cc4cc5c(cc42)OCO5)[C@@H]3C1` [Crinine (8)]: 39.6 ± 5.4%.
Still for that read-out and setting: with `COc1cc2c(cc1OC)[C@@H]1[C@H](O)[C@@H](OC)C=C3CCN(C2)[C@H]31` [Galanthine (17)] the figure was 26.4 ± 7.7%; with `CO[C@@H]1C=C[C@@]23c4cc5c(cc4[C@H](O)N(C[C@@H]2O)[C@H]3C1)OCO5` [Haemanthidine (4)], 33 ± 2.2%; with `O[C@H]1C=C[C@@]23c4cc5c(cc4CN(C[C@@H]2O)[C@H]3C1)OCO5` [Hamayne (5)], 33.9 ± 0.1%.
With `CN1CCC2=C[C@H](O)[C@H]3OC(=O)c4cc5c(cc4[C@H]3[C@@H]21)OCO5` [Hippeastrine (21)], the inhibition at 50 µM came out at 10.7 ± 2.5%.
`COc1cc2c(cc1OC)[C@@H](O)O[C@@H]1CC=C3CCN(C)[C@H]3[C@H]21` [Lycorenine (25)]: the inhibition at 50 µM was 47.6 ± 3.5%.
The same measure, in the same setting: with `O[C@H]1[C@H]2c3cc4c(cc3CN3CCC(=C[C@@H]1O)[C@H]23)OCO4` [Lycorine (15)] the figure was 32.9 ± 0.2%; with `COc1ccc2c3c1O[C@H]1CC(=O)C=C[C@@]31CCN(C)C2` [Narwedine (12)], 37.7 ± 0.3%; with `COc1cc2c(cc1O)CN1CCC3=CC[C@@H](O)[C@@H]2[C@@H]31` [Norpluviine (19)], 45 ± 4.3%.
As to `CO[C@@H]1C=C[C@@]23c4cc5c(cc4CO[C@]2(O)CN(C)[C@H]3C1)OCO5` [Tazettine (20)], the inhibition at 50 µM amounted to 49.2 ± 0.3%.
Same read-out and setting: with `COc1c2c(cc3c1OCO3)[C@@]13CCN(C2)[C@@H]1C[C@@H](OC)[C@@H]1O[C@@H]13` [Undulatine (9)] the figure was 43.3 ± 4%.
As for `O[C@@H]1CC=C2CCN3Cc4cc5c(cc4[C@H]1[C@@H]23)OCO5` [compound 14, Caranine], the inhibition at 50 µM came to 61.8 ± 9.2%.
Same read-out and setting: the same measure for `COc1cc2c(cc1O)C1C(CC=C3CCN(C)C31)OC2=O` (stereo not drawn) [compound 23, 9-O-Demethylhomolycorine]: 63.6 ± 1.3%; for `CN1CCC2=CCC3OC(=O)c4cc5c(cc4C3C21)OCO5` (stereo not drawn) [compound 24, Masonine]: 66 ± 4%.

Another assay concerns the target T1, GSK-3β. The assay is described as follows: biochemical.
Conditions: not given
The source holds these as a separate data set.
One may read the IC50 as the concentration that inhibits the measured activity by half. Read a low IC50 as higher potency. `O[C@@H]1CC=C2CCN3Cc4cc5c(cc4[C@H]1[C@@H]23)OCO5` [compound 14, Caranine] came in with an IC50 of 30.8 µM.
Still for that read-out and setting: the same measure for `COc1cc2c(cc1O)C1C(CC=C3CCN(C)C31)OC2=O` (stereo not drawn) [compound 23, 9-O-Demethylhomolycorine]: 30 µM; for `CN1CCC2=CCC3OC(=O)c4cc5c(cc4C3C21)OCO5` (stereo not drawn) [compound 24, Masonine]: 27.8 µM.

The target of another assay is T1, GSK-3β. The assay is described as follows: Kinase-Glo luminescent kinase assay, single concentration […]. In kind it is biochemical. The note with it: read-out: % of Inhibition. (Kinase-Glo reads ATP consumption through a luciferase reaction.)
In the case of `CO[C@@H]1C=C[C@@]23c4cc5c(cc4CN(C[C@@H]2O)[C@H]3C1)OCO5` [compound 3, Haemanthamine], the inhibition at 50 µM came to 52.4%.
The same measure, in the same setting: with `COc1cc2c(cc1OC)[C@H]1[C@H]3C(=CC[C@H]1OC2=O)CCN3C` [compound 22, Homolycorine] the figure was 54.4%; with `CCOC1OC2CC=C3CCN(C)C3C2c2cc(OC)c(OC)cc21` (stereo not drawn) [compound 26, O-Ethyllycorenine], 57.7%; with `CN1CCC2=CCC3OC(O)c4cc5c(cc4C3C21)OCO5` (stereo not drawn) [compound 27, Oduline], 57.7%.

The values are drawn from paper PMC6017564, “Amaryllidaceae Alkaloids as Potential Glycogen Synthase Kinase-3β Inhibitors” (Molecules : A Journal of Synthetic Chemistry and Natural …, 2018).
